IC50 data for eight compounds are collected here from patent US20260176289A1, “SMALL MOLECULE INHIBITORS OF KRAS PROTEINS” (Merck Sharp & Dohme LLC, priority 2022, published 2026).

For experiment [1], the target named is KRAS-G12V (Homo sapiens, UniProt P01116, G12V). The experiment in a line: SOS-catalyzed nucleotide exchange assay (Procedure A, TR-FRET), KRAS-G12V. It counts as biochemical. Conditions: nucleotide exchange, read-out: KRAS G12V GNE IC50. The essentials:
(§1)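 Biotinylated RAS (KRAS-G12C carries C51S/C80L/C118S; others WT background) preloaded with Bodipy-GDP plus Tb-streptavidin, preincubated with compound 60 min at RT, then human SOS and 3 mM GTP added. Final RAS/SOS: G12C 3 nM/40 nM, 60 min; WT 1 nM/40 nM, 60 min; G12V 1.25 nM/160 nM, 90 min; NRAS 1.25 nM/40 nM, 60 min. TR-FRET 520/495 ratio normalized to DMSO and saturating inhibitor; 10-point curves fit four-parameter logistic.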
Background: Time-resolved FRET reads energy transfer from a long-lived donor to a nearby acceptor.

In experiment [2] the test system is AsPC-1 cells. The experiment in a line: Cellular phospho-ERK assay, AsPC-1 cells (homozygous KRAS-G12D). It counts as cell-based. The conditions noted are these: Homo sapiens, ASPC1, 2 h, read-out: AsPC1 pERK IC50. The essentials:
(§2)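 ERK phosphorylation relative to total ERK is the endpoint, detected by AlphaScreen-based SureFire multiplex following a 2-hour treatment at 37 °C. Compounds are titrated 1:3 over ten points from 30 μM.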

The target of experiment [3] is KRAS-G12C (C51S/C80L/C118S) (Homo sapiens, UniProt P01116, C118S/C51S/C80L/G12C). The experiment in a line: SOS-catalyzed nucleotide exchange assay (Procedure A, TR-FRET), KRAS-G12C. It counts as biochemical. The conditions noted are these: nucleotide exchange, Procedure A; read-out: KRAS G12C GNE IC50. The source says: (§3) Procedure for SOS-Catalyzed Nucleotide Exchange Assay for KRAS-WT, G12C/D/V, G13D, HRAS, and NRAS (Procedure A)
(§4) Recombinant KRAS-G12C protein used in this assay has an additional triple mutation (C51S/C80L/C118S). Whereas KRAS-WT, G12D/V, G13D, HRAS and NRAS are in context of their WT protein sequence background. Specifically, the SOS-catalyzed nucleotide exchange assay utilizes a preformed TR-FRET complex containing a specific biotinylated RAS protein (KRAS-WT, G12C/V/D, G13D, HRAS, NRAS; described above) with Bodipy-GDP, and Terbium-streptavidin. Compounds are preincubated with this complex for 60 minutes. Subsequently, recombinant human SOS protein and unlabeled GTP are added to initiate the exchange reaction. Small molecule inhibitors stabilize the Bodipy-GDP complex whereas the untreated protein rapidly exchanges Bodipy-GDP for unlabeled GTP resulting in reduced TR-FRET signal.
(§5) To assemble the preformed TR-FRET complexes, each biotinylated RAS protein is diluted to 2 μM in an EDTA Buffer (20 mM HEPES pH 7.5, 50 mM sodium chloride, 10 mM EDTA, and 0.01% Tween) and incubated at room temperature for one hour. This mixture is then further diluted to 90 nM in an Assay Buffer (20 mM HEPES pH 7.5, 150 mM sodium chloride, 10 mM magnesium chloride, and 0.005% Tween) containing 15 nM of Terbium-Streptavidin (Invitrogen, catalog #PV3577) and 900 nM of Bodipy-GDP (Invitrogen, catalog #G22360) and incubated at room temperature for six hours. It should be noted that this preformed TR-FRET complex for each of the RAS protein were made ahead of time, aliquoted and stored at −80° C. until the day of the experiment.
(§6) Each test compound (10 mM stock in DMSO) is diluted in DMSO to make a final-10-point, 3-fold dilution and is acoustically dispensed into a 384-well assay plate (Corning, catalog #3820) using an Echo 550 (Labcyte). Each well of the assay plate receives 3 μL of a specific 3×RAS preformed TR-FRET complex and 3 μL of Assay Buffer and is incubated at room temperature for 60 minutes (preincubation time). Each well then receives 3 μL of 3×recombinant human SOS protein and GTP (Sigma, G8877) in Assay Buffer and is incubated at room temperature for 30 minutes (G13D), 60 minutes (KRAS WT/G12C/D, H/NRAS) or 90 minutes for G12V. The final reaction in each well of 9 μL consists of 3 mM GTP, specific Ras and SOS proteins in the following concentrations: KRAS-G12C/SOS=3 nM/40 nM, KRAS-WT and G12D/SOS=1 nM/40 nM, KRAS-G12V/SOS=1.25 nM/160 nM. KRAS-G13D/SOS=1.25 nM/0 nM, HRAS and NRAS=1.25 nM/40 nM.
(§7) The time-resolved fluorescence resonance energy transfer (TR-FRET) signal is measured on an Envision (PerkinElmer) plate reader: Excitation filter=340 nm; emission 1=495 nm; emission2=520 nm; dichroic mirror=D400/D505; delay time=[…]. The signal of each well is determined as the ratio of the emission at 520 nm to that at 495 nm. Percent effect of each well is determined after normalization to control wells containing DMSO (no effect) or a saturating concentration of inhibitor (max effect). The apparent effect as a function of compound concentration is fit to a four-parameter logistic equation.

The target in experiment [4] is KRAS-WT (Homo sapiens, UniProt P01116). The experiment in a line: SOS-catalyzed nucleotide exchange assay (Procedure A, TR-FRET), KRAS-WT. It counts as biochemical. Conditions: nucleotide exchange, read-out: KRAS WT GNE IC50. The essentials:
as §1

The target of experiment [5] is KRAS-G12D (Homo sapiens, UniProt P01116, G12D). The experiment in a line: SOS-catalyzed nucleotide exchange assay (Procedure A, TR-FRET), KRAS-G12D. It counts as biochemical. The conditions noted are these: nucleotide exchange, read-out: KRAS G12D GNE IC50. The essentials:
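Signal ratio (520/495 nm, excitation 340 nm) reports Bodipy-GDP retention on biotinylated RAS after SOS-catalyzed exchange with 3 mM GTP. SOS was 40 nM, except 160 nM for G12V. Room-temperature exchange lasted 60 min (90 min for G12V), following a 60 min compound preincubation.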

Experiment [6] has as its target KRAS-G13D (Homo sapiens, UniProt P01116, G13D). The experiment in a line: SOS-catalyzed nucleotide exchange assay (Procedure A, TR-FRET), KRAS-G13D. It counts as biochemical. Conditions: nucleotide exchange, Procedure A; read-out: KRAS G13D GNE IC50.
Description: as §3, §4, §5, §6, §7

Experiment [7] deals with MKN-1 cells. The experiment in a line: Cellular phospho-ERK assay, MKN-1 cells (amplified wild-type KRAS). It counts as cell-based. The conditions noted are these: Homo sapiens, 2 hours compound incubation, read-out: MKN1 pERK IC50. Put shortly:
as §2

The subject of experiment [8] is SW620 cells. The experiment in a line: Cellular phospho-ERK assay, SW620 cells (homozygous KRAS-G12V). The conditions noted are these: Homo sapiens, SW-620, 2 hours compound incubation, read-out: SW620 pERK IC50. It counts as cell-based. The essentials:
as §2

SMILES strings stand for the structures. Like-named read-outs stand apart in the source and are kept apart here.

KRAS-G13D, sequence (P01116 with tags, fused parts or gaps isoform P01116-2 G13D): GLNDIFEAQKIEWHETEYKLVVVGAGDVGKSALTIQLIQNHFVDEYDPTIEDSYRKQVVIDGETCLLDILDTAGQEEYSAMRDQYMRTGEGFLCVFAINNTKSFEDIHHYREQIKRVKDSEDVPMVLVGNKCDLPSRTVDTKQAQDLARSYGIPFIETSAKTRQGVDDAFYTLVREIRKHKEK
KRAS-WT, sequence (P01116 with tags, fused parts or gaps isoform P01116-2): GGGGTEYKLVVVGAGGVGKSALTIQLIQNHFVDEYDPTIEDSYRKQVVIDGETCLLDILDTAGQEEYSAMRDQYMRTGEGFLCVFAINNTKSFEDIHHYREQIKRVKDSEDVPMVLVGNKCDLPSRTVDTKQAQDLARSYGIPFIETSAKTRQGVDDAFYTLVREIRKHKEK
KRAS-G12V, sequence (P01116 with tags, fused parts or gaps isoform P01116-2 G12V): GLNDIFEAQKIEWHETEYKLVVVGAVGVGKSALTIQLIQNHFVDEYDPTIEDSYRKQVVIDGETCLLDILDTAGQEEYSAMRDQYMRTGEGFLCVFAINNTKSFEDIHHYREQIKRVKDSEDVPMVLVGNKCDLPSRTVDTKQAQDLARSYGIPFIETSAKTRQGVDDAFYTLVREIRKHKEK
KRAS-G12D, sequence (P01116 with tags, fused parts or gaps isoform P01116-2 G12D): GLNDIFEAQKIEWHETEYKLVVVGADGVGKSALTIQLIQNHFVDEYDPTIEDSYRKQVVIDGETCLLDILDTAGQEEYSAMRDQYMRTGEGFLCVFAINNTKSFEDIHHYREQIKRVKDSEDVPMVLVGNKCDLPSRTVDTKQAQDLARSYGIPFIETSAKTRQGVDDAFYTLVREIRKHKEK
KRAS-G12C (C51S/C80L/C118S), sequence (P01116 with tags, fused parts or gaps isoform P01116-2 G12C/C51S/C80L/C118S): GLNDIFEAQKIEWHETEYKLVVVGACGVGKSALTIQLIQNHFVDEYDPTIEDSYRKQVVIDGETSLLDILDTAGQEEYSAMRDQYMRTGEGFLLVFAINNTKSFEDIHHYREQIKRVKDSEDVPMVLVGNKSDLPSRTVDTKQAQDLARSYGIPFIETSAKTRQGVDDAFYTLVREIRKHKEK

For orientation: IC50 means the concentration needed to halve the response being measured. Turning to `Cc1cc2[nH]ncc2c(-c2nccc3c2sc2nc(OC[C@@]45CCCN4C[C@H](F)C5)nc(N4CCOC[C@@](C)(O)C4)c23)c1-c1ccsc1` [Ex-139, (6S)-4-(2-(((2R, 7aS)-2-fluorotetra-hydro-1H-pyrrol-izin-7a(5H)-yl)meth-oxy)-8-(6-methyl-5-(thiophen-3-yl)-1H-indazol-4-yl)pyrido [4′,3′:4,5]thieno[2,3-d]pyrimidin-4-yl)-6-methyl-1,4-oxaze-pan-6-ol], the IC50 is 128 nM in experiment [1]; 663 nM in experiment [2] (2 hours compound incubation); 159 nM in experiment [3]; 319 nM in experiment [4]; 129 nM in experiment [5]; 377 nM in experiment [6].

In the case of `Cc1cc2[nH]ncc2c(-c2nccc3c2sc2nc(OC[C@@]45CCCN4C[C@H](F)C5)nc(N4CCOC[C@@](C)(O)C4)c23)c1C1CCCC1` [Ex-147, (6S)-4-(8-(5-cyclo-pentyl-6-methyl-1H-indazol-4-yl)-2-(((2R,7aS)-2-fluoro-tetrahydro-1H-pyr-rolizin-7a(5H)-yl)-methoxy)pyrido [4′,3′:4,5]thieno[2,3-d]pyrimidin-4-yl)-6-methyl-1,4-oxaze-pan-6-ol], the IC50 in experiment [1] is 293 nM; in experiment [2] (2 hours compound incubation) it was 1260 nM; in experiment [3], 438 nM; in experiment [4], 670 nM; in experiment [5] it was 284 nM; in experiment [6] it was 936 nM.

As for `Cc1cc2[nH]ncc2c(-c2nccc3c2sc2nc(OC[C@@]45CCCN4C[C@H](F)C5)nc(N4CCOC[C@@](C)(O)C4)c23)c1-c1ccco1` [Ex-146, (6S)-4-(2-(((2R, 7aS)-2-fluorotetra-hydro-1H-pyrrol-izin-7a(5H)-yl)meth-oxy)-8-(5-(furan-2-yl)-6-methyl-1H-indazol-4-yl)pyrido [4′,3′:4,5]thieno[2,3-d]pyrimidin-4-yl)-6-methyl-1,4-oxaze-pan-6-ol], the 50% inhibitory concentration (IC50) in experiment [1] was 22.1 nM; in experiment [2] (2 hours compound incubation) it was 153 nM; in experiment [3], 77.6 nM; in experiment [4], 58.2 nM; in experiment [5] it was 15.3 nM; in experiment [6], 29.4 nM.

As for `Cc1cc2[nH]ncc2c(-c2nccc3c2sc2nc(OC[C@@]45CCCN4C[C@H](F)C5)nc(NC4(CO)COC4)c23)c1C(F)(F)F` [Ex-185, (3-((2-(((2R,7aS)-2-fluoro-tetrahydro-1H-pyrrolizin-7a(5H)-yl)methoxy)-8-(6-methyl-5-(trifluoromethyl)-1H-indazol-4-yl)pyrido [4′,3′:4,5]thieno[2,3-d]pyr-imidin-4-yl)amino)oxetan-3-yl)methanol], the IC50 in experiment [1] was determined as 319 nM; in experiment [2] (2 hours compound incubation) it was 4580 nM; in experiment [3], 146 nM; in experiment [4] it was 1370 nM; in experiment [5] it was 482 nM; in experiment [6] it was 842 nM.

`Cc1cc2[nH]ncc2c(-c2nccn3c2cc2nc(OC[C@]4(CN(C)C)CC4(F)F)nc(N4CCOC[C@@](C)(O)C4)c23)c1C1CC1` [Ex-296, (S)-4-(9-(5-cyclopropyl-6-methyl-1H-indazol-4-yl)-2-(((R)-1-((dimethylamino)meth-yl)-2,2-difluorocyclopropyl)methoxy)pyrazino [1′,2′:1,5]pyrrolo[3,2-d]pyrimidin-4-yl)-6-methyl-1,4-oxazepan-6-ol]: the 50% inhibitory concentration (IC50) in experiment [1] was found to be 101 nM; in experiment [2] (KRAS-G12D, 2 hours) it was 316 nM; in experiment [3], 43.9 nM; in experiment [4], 167 nM; in experiment [5], 48.7 nM; in experiment [6], 80.1 nM.

Consider `CN(C)C[C@@]1(COc2nc(N3CCOC[C@@](C)(O)C3)c3c(n2)sc2c(-c4c(C5CC5)c(C(F)(F)F)cc5[nH]ncc45)nccc23)CC1(F)F` [Ex-206, (6S)-4-(8-(5-cyclo-propyl-6-(trifluoro-methyl)-1H-inda-zol-4-yl)-2-(((R)-1-((dimethylamino)-methyl)-2,2-difluorocycloprop-yl)methoxy)pyrido [4′,3′:4,5]thieno [2,3-d]pyrimidin-4-yl)-6-methyl-1,4-oxazepan-6-ol], for which the IC50 amounted to 22.2 nM in experiment [1]; 22.9 nM in experiment [7]; 15.4 nM in experiment [8]; 24 nM in experiment [2] (2 hours compound incubation); 3.57 nM in experiment [3]; 23.5 nM in experiment [4]. The IC50 in experiment [5] came out at 7.07 nM.

`C[C@@]1(O)COCCN(c2nc(OC[C@@]34CCCN3C[C@H](F)C4)nc3sc4c(-c5ccc(F)c6sc(N)c(C#N)c56)nccc4c23)C1` [Ex-275, 2-amino-7-fluoro-4-(2-(((2R,7aS)-2-fluoro-tetrahydro-1H-pyrrolizin-7a(5H)-yl)methoxy)-4-((S)-6-hydroxy-6-methyl-1,4-oxazepan-4-yl)pyrido[4′,3′:4,5]thi-eno[2,3-d]pyrimidin-8-yl)benzo[b]thiophene-3-carbonitrile]: the IC50 in experiment [1] is 2950 nM; in experiment [3], 2220 nM; in experiment [4] it was 1520 nM; in experiment [5], 1310 nM; in experiment [6] it was 1200 nM.

In the case of `Cc1nc2[nH]nc(C)c2c(-c2nccc3c4c(N5CCOC[C@@](C)(O)C5)nc(OC[C@@]56CCCN5C[C@H](F)C6)nc4n(C)c23)c1C(F)(F)F` [Ex-15, (6S)-4-(8-(3,6-dimethyl-5-(trifluoromethyl)-1H-pyrazolo[3,4-b]pyridin-4-yl)-2-(((2R,7aS)-2-fluorotetrahydro-1H-pyrrolizin-7a(5H)-yl)methoxy)-9-methyl-9H-pyrido[4′,3′:4,5]pyrrolo[2,3-d]pyrimidin-4-yl)-6-methyl-1,4-oxazepan-6-ol], the IC50 was determined as 4930 nM in experiment [1]; 1970 nM in experiment [3]; 8020 nM in experiment [4]; 9040 nM in experiment [5]; 5380 nM in experiment [6].
